{"source": "patent US5583108A", "about": "“Vasonatrin peptide and analogs thereof” (Mayo Foundation for Medical Education and Research, priority 1994, dated 1996)", "key": {"normal rats": {"system": "normal rats", "assay": "Cardiorenal actions after intravenous bolus in anesthetized normal rats", "type": "in vivo, Wistar rats", "conditions": "for MAP mean arterial pressure / HR heart rate / RAP right atrial pressure / UKV urine potassium excretion / UNaV urine sodium excretion / UV urine volume / UcGMPV urine cGMP volume / PcGMP plasma cGMP: mean ± SEM; for MAP mean arterial pressure: n = 4", "procedure": "(§1) The results obtained are expressed as the means ±SEM. In organ chamber studies, n equals the number of dogs from which rings were taken. Rings with and without endothelium were studied in parallel, and Student's t-test for unpaired observations was used to determine statistical significance among the responses of rings with and without endothelium and between responses of arteries and veins. In rat studies, the data were analyzed using ANOVA for repeated measures followed by Fisher's least significant difference test when appropriate within the group. Data between groups were analyzed by Student's unpaired t-test. Statistical significance was determined at p<0.05.\nExperiments were conducted in accordance with the Animal Welfare Act. Wistar rats and spontaneously hypertensive rats (SHR) (400 g; Harlan Sprague-Dawley, Indianapolis, Ind.) were anesthetized with Inactin (100 mg/kg; intraperitoneal; BYK Gulden, Konstanz, Germany). The body temperature was maintained between 36° and 38° C. by a heating pad. Tracheostomy was performed; however, the animals were not artificially ventilated. Polyethylene catheters (PE-50; Becton Dickinson Co., Parsippany, N.J.) were placed in the left Jugular vein for infusions of saline and drugs, in the right jugular vein to right atrium to monitor right atrial pressure, and in the carotid artery for the collection of blood samples and to monitor mean arterial pressure. A PE-90 catheter was placed in the bladder for urine collection.\nExperiments were conducted in three groups in normal rats: ANP group (n=4), CNP group (n=4), and VNP group (n=4). VNP also was studied in SHR rats (n=4). Intravenous infusions of saline solution (0.9% NaCl) were performed (1 ml/100 gm body weight/hr) through the left jugular vein catheter. After completion of surgery, rats were allowed to stabilize for 30 minutes. In each group, a 15-min baseline period followed. After the baseline period, saline solution (0.9% NaCl) was administered in a bolus fashion (0.1 ml) and was followed by a 15-min period. After the saline period, the peptide (ANP, CNP or VNP) was administered in a bolus fashion (0.1 ml) at 5 μg/kg which was followed by a 15-min period. This was followed by a second bolus (0.1 ml) at 50 μg/kg and a 15-min period. After a 30-min washout, a 15-min recovery period followed. During each experimental period, mean arterial pressure (MAP), heart rate (HR), and right atrial pressure (RAP) were measured. At the midpoint of baseline, second bolus fashion (50 μg/kg) and recovery periods, blood was sampled for plasma cGMP. At the end of each period, urine was measured for volume (UV), and samples were stored for electrolytes and cGMP analysis.\nBlood for plasma cGMP analysis was collected into EDTA tubes, immediately placed on ice, and centrifuged at […] at 4° C. Plasma was separated and stored at -20° C. until assay. Urine for cGMP determination was heated to >90° C. before storage. Plasma and urine cGMP were determined by a specific RIA as previously described by A. L. Steiner et al., J. Hypertension, 5 (Suppl. 5) 551-553 (1987)."}, "[1]": {"system": "vessels pre-contracted with endothelin", "assay": "Relaxation of vessels pre-contracted with endothelin"}, "[2]": {"system": "isolated vessels in congestive heart failure dogs", "assay": "Preliminary studies: vasorelaxation in isolated vessels of congestive heart failure dogs", "design": "species or system dog"}, "[3]": {"system": "isolated normal canine blood vessels", "assay": "Organ chamber isometric force: relaxation of phenylephrine-contracted vessel rings", "design": "species or system dog", "conditions": "for relaxation: maximal dose (3×10^-6 M); for maximal response, percent change in tension from a contraction to phenylephrine: peptide 3 × 10^-6 M, mean ± SEM", "procedure": "as §1\nRings cut from femoral, saphenous, renal and pulmonary arteries and veins obtained from random source mongrel dogs (anesthetized with 30 mg/kg pentobarbital sodium intravenously) were suspended for the measurement of isometric force in organ chambers filled with aerated (95% O2 and 5% CO2) modified Krebs-Ringer bicarbonate solution (composition in mM: 118.3 NaCl, 4.7 KCl, 2.5 CaCl2, 1.2 MgSO4, 1.2 KH2 PO4, 25.0 NaHCO3, 0.026 calcium sodium EDTA, and 11.1 dextrose; control solution) at 37° C. In one-half rings, the endothelium was removed by gently rubbing the intimal surface with a cotton swab wetted with control solution. Each ring was stretched to the optimal point on its length-tension curve as determined by the tension developed to norepinephrine (3×10^-7 M) at each level of stretch. The presence of endothelium was determined at the beginning of the experiment by a relaxation to acetylcholine (10^-6 M) during a contraction to norepinephrine at optimal length. The maximal tension of each ring was determined by norepinephrine (10^-4 M). To study responses to ANP, CNP and VNP, the rings were contracted with phenylephrine (10^-6 M). These contractions averaged 30-40% of the maximal contraction to norepinephrine. The peptides were added cumulatively once the contraction had stabilized.\nThe following commercially available drugs were used: acetylcholine chloride (Sigma Chemical, St. Louis, Mo.), human ANP and human CNP (Peninsula Laboratories, Belmont, Calif.), L-norepinephrine bitartrate (Sigma), phenylephrine bitartrate (Sigma). All drugs were dissolved in distilled water immediately prior to study, and the concentrations are reported as the final molar concentration (M) in the organ chamber."}, "[4]": {"conditions": "normal rats, high dose (50 μg/kg) bolus"}}, "note": "“Also recorded” adds a separate entry of the source.", "data": [{"smiles": "CC[C@H](C)[C@@H]1NC(=O)[C@H](CCCNC(=N)N)NC(=O)[C@H](CC(=O)O)NC(=O)[C@H](CC(C)C)NC(=O)[C@H](CCCCN)NC(=O)[C@H](CC(C)C)NC(=O)CNC(=O)[C@H](Cc2ccccc2)NC(=O)[C@@H](NC(=O)CNC(=O)[C@H](CCCCN)NC(=O)[C@H](CO)NC(=O)[C@H](CC(C)C)NC(=O)CN)CSSC[C@@H](C(=O)N[C@@H](CC(N)=O)C(=O)N[C@@H](CO)C(=O)N[C@@H](Cc2ccccc2)C(=O)N[C@@H](CCCNC(=N)N)C(=O)N[C@@H](Cc2ccc(O)cc2)C(=O)O)NC(=O)CNC(=O)[C@H](CC(C)C)NC(=O)CNC(=O)[C@H](CO)NC(=O)[C@H](CCSC)NC(=O)[C@H](CO)NC(=O)CNC1=O", "note": "[VNP, vasonatrin peptide]", "values": [{"measurement": "natriuretic action (in words)", "setting": "normal rats; in vivo, rat", "value": "potent natriuretic effect"}, {"measurement": "change in MAP and RAP (in words)", "setting": "normal rats; [4]", "value": "significant decrease; also recorded: significantly decreased"}, {"measurement": "change in urine flow, sodium excretion, plasma cGMP and urinary cGMP volume (in words)", "setting": "normal rats; [4]", "value": "significantly increased"}, {"measurement": "increase in urine flow, sodium excretion and urinary cGMP volume compared between peptides", "setting": "normal rats; [4]", "value": "significantly higher with VNP than those of CNP, but were less than those of ANP"}, {"measurement": "MAP mean arterial pressure", "setting": "normal rats; normal rats, iv bolus 5 μg/kg, 15-min period", "value": "93 ± 15", "unit": "mmHg"}, {"measurement": "HR heart rate", "setting": "normal rats; normal rats, iv bolus 5 μg/kg", "value": "393 ± 20", "unit": "beats/min"}, {"measurement": "RAP right atrial pressure", "setting": "normal rats; normal rats, iv bolus 5 μg/kg", "value": "-3.5 ± 0.9", "unit": "mmHg"}, {"measurement": "UKV urine potassium excretion", "setting": "normal rats; normal rats, iv bolus 5 μg/kg", "value": "3.3 ± 1.4", "unit": "µmol/min"}, {"measurement": "UNaV urine sodium excretion", "setting": "normal rats; normal rats, iv bolus 5 μg/kg", "value": "5.3 ± 1.9", "unit": "µmol/min"}, {"measurement": "UV urine volume", "setting": "normal rats; normal rats, iv bolus 5 μg/kg", "value": "32.2 ± 7.5", "unit": "µL/min"}, {"measurement": "UcGMPV urine cGMP volume", "setting": "normal rats; normal rats, iv bolus 5 μg/kg", "value": "113 ± 27", "unit": "pmol/min"}, {"measurement": "HR heart rate", "setting": "normal rats; normal rats, iv bolus 50 μg/kg", "value": "408 ± 25", "unit": "beats/min"}, {"measurement": "PcGMP plasma cGMP", "setting": "normal rats; normal rats, iv bolus 50 μg/kg", "value": "33.3 ± 8.7", "unit": "pmol/mL"}, {"measurement": "RAP right atrial pressure", "setting": "normal rats; normal rats, iv bolus 50 μg/kg", "value": "-4.3 ± 0.8", "unit": "mmHg"}, {"measurement": "UKV urine potassium excretion", "setting": "normal rats; normal rats, iv bolus 50 μg/kg", "value": "11.9 ± 4.7", "unit": "µmol/min"}, {"measurement": "UNaV urine sodium excretion", "setting": "normal rats; normal rats, iv bolus 50 μg/kg", "value": "22.5 ± 2.2", "unit": "µmol/min"}, {"measurement": "UV urine volume", "setting": "normal rats; normal rats, iv bolus 50 μg/kg", "value": "136 ± 5.5", "unit": "µL/min"}, {"measurement": "UcGMPV urine cGMP volume", "setting": "normal rats; normal rats, iv bolus 50 μg/kg", "value": "961 ± 82", "unit": "pmol/min"}, {"measurement": "MAP mean arterial pressure", "setting": "normal rats; normal rats, recovery period after 30-min washout", "value": "93 ± 15", "unit": "mmHg"}, {"measurement": "HR heart rate", "setting": "normal rats; normal rats, recovery period", "value": "390 ± 20", "unit": "beats/min"}, {"measurement": "PcGMP plasma cGMP", "setting": "normal rats; normal rats, recovery period", "value": "4.4 ± 1.4", "unit": "pmol/mL"}, {"measurement": "RAP right atrial pressure", "setting": "normal rats; normal rats, recovery period", "value": "-2.9 ± 0.9", "unit": "mmHg"}, {"measurement": "UKV urine potassium excretion", "setting": "normal rats; normal rats, recovery period", "value": "1.3 ± 0.6", "unit": "µmol/min"}, {"measurement": "UNaV urine sodium excretion", "setting": "normal rats; normal rats, recovery period", "value": "0.9 ± 0.3", "unit": "µmol/min"}, {"measurement": "UV urine volume", "setting": "normal rats; normal rats, recovery period", "value": "8.4 ± 2.7", "unit": "µL/min"}, {"measurement": "UcGMPV urine cGMP volume", "setting": "normal rats; normal rats, recovery period", "value": "88 ± 48", "unit": "pmol/min"}, {"measurement": "MAP mean arterial pressure", "setting": "normal rats; normal rats, second iv bolus 50 μg/kg, 15-min period", "value": "79 ± 15", "unit": "mmHg"}, {"measurement": "relaxation of pre-contracted vessels (in words)", "setting": "[1]", "value": "able to relax"}, {"measurement": "vasorelaxing actions (in words)", "setting": "[2]", "value": "potent vasorelaxing actions"}, {"measurement": "relaxation", "setting": "[3]; femoral and saphenous arteries", "value": "90-100%"}, {"measurement": "maximal response, percent change in tension from a contraction to phenylephrine", "setting": "[3]; femoral artery, with endothelium, phenylephrine 10^-6 M", "value": "91 ± 4", "unit": "%"}, {"measurement": "maximal response, percent change in tension from a contraction to phenylephrine", "setting": "[3]; femoral artery, without endothelium", "value": "89 ± 5", "unit": "%"}, {"measurement": "maximal response, percent change in tension from a contraction to phenylephrine", "setting": "[3]; femoral vein, with endothelium", "value": "81 ± 6", "unit": "%"}, {"measurement": "maximal response, percent change in tension from a contraction to phenylephrine", "setting": "[3]; femoral vein, without endothelium", "value": "86 ± 6", "unit": "%"}, {"measurement": "relaxation", "setting": "[3]; femoral veins", "value": 90, "unit": "%"}, {"measurement": "order of potency", "setting": "[3]; pulmonary arteries", "value": "ANP=VNP>CNP"}, {"measurement": "maximal response, percent change in tension from a contraction to phenylephrine", "setting": "[3]; pulmonary artery, with endothelium", "value": "57 ± 5", "unit": "%"}, {"measurement": "maximal response, percent change in tension from a contraction to phenylephrine", "setting": "[3]; pulmonary artery, without endothelium", "value": "63 ± 7", "unit": "%"}, {"measurement": "maximal response, percent change in tension from a contraction to phenylephrine", "setting": "[3]; pulmonary vein, with endothelium", "value": "71 ± 2", "unit": "%"}, {"measurement": "maximal response, percent change in tension from a contraction to phenylephrine", "setting": "[3]; pulmonary vein, without endothelium", "value": "84 ± 3", "unit": "%"}, {"measurement": "order of potency", "setting": "[3]; pulmonary veins without endothelium", "value": "VNP>CNP>ANP"}, {"measurement": "maximal response, percent change in tension from a contraction to phenylephrine", "setting": "[3]; renal artery, with endothelium", "value": "52 ± 4", "unit": "%"}, {"measurement": "maximal response, percent change in tension from a contraction to phenylephrine", "setting": "[3]; renal artery, without endothelium", "value": "62 ± 12", "unit": "%"}, {"measurement": "maximal response, percent change in tension from a contraction to phenylephrine", "setting": "[3]; renal vein, with endothelium", "value": "65 ± 6", "unit": "%"}, {"measurement": "maximal response, percent change in tension from a contraction to phenylephrine", "setting": "[3]; renal vein, without endothelium", "value": "90 ± 4", "unit": "%"}, {"measurement": "maximal response, percent change in tension from a contraction to phenylephrine", "setting": "[3]; saphenous artery, with endothelium", "value": "73 ± 3", "unit": "%"}, {"measurement": "maximal response, percent change in tension from a contraction to phenylephrine", "setting": "[3]; saphenous artery, without endothelium", "value": "81 ± 5", "unit": "%"}, {"measurement": "maximal response, percent change in tension from a contraction to phenylephrine", "setting": "[3]; saphenous vein, with endothelium", "value": "60 ± 11", "unit": "%"}, {"measurement": "maximal response, percent change in tension from a contraction to phenylephrine", "setting": "[3]; saphenous vein, without endothelium", "value": "89 ± 6", "unit": "%"}, {"measurement": "relaxation", "setting": "[3]; saphenous veins", "value": 90, "unit": "%"}, {"measurement": "potency for relaxation (order)", "setting": "[3]; systemic arteries", "value": "VNP>ANP≥CNP"}, {"measurement": "relaxation, % of the contraction to phenylephrine", "setting": "[3]; systemic arteries (femoral, saphenous and renal)", "value": "50-90%"}, {"measurement": "potency for relaxation (order)", "setting": "[3]; systemic veins", "value": "VNP>CNP>ANP"}]}]}
